Measurements taken from ChEMBL document CHEMBL1122719, “Steroids. 2. Synthesis of C-18 functionalized steroids via the Smith-Hughes route” (J Med Chem, 1984).

molecular target: Estrogen receptor (Rattus norvegicus, UniProt P06211+Q62986); assay: Equilibrium dissociation constant for rat uterine estrogen receptor binding [3H]estradiol; format: protein assay

First: C#C[C@]1(O)CC[C@H]2[C@@H]3CCC4=CC(=O)CC[C@@H]4[C@H]3CC[C@@]21C [NORETHINDRONE]
Second: OC[C@@]12CCC[C@H]1[C@@H]1CCc3cc(O)ccc3[C@H]1CC2
The Kd of the first is 490-fold lower: 0.00063 µM for the first, 0.31 µM for the second.

molecular target: T1, Progesterone receptor (Gallus gallus) (UniProt P07812); assay: In vitro displacement of progesterone from oviduct progesterone receptor relative to progesterone
T1 sequence (whole entry): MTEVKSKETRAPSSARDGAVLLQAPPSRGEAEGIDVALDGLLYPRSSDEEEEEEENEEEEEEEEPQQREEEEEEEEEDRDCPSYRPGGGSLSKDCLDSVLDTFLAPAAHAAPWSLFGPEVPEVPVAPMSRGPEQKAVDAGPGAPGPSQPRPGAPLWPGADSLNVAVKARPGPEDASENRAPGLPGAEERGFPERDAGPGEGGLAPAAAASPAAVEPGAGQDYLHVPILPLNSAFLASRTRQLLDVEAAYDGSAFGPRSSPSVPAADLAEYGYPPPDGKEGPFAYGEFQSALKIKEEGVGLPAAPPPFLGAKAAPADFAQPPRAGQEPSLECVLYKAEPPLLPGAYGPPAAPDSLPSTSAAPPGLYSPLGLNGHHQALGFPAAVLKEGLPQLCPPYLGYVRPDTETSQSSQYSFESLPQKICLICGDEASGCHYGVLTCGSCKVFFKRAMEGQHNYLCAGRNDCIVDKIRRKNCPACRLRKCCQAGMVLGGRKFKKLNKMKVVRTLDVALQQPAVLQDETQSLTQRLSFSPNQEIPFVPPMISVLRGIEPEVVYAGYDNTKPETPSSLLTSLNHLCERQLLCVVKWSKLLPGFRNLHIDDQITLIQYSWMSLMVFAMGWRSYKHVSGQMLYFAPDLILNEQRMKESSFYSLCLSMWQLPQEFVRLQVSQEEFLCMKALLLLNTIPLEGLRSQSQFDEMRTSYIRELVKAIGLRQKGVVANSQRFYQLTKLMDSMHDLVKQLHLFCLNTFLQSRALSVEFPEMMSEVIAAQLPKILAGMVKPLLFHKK

First: CC(=O)C[C@@]12CCC[C@H]1[C@@H]1CCC3=CC(=O)CC[C@@H]3[C@H]1CC2
Second: CC(=O)OC(C(C)=O)[C@@]12CCC[C@H]1[C@@H]1CCC3=CC(=O)CC[C@@H]3[C@H]1CC2 (stereo partly drawn)
The Relative binding affinity of the first is higher: 2% for the first, 0.1% for the second.

Compared with `CC(=O)[C@H]1CC[C@H]2[C@@H]3CCC4=CC(=O)CC[C@]4(C)[C@H]3CC[C@]12C`, `C#C[C@]1(O)CC[C@H]2[C@@H]3CCC4=CC(=O)CC[C@@H]4[C@H]3CC[C@@]21C` [NORETHINDRONE] is higher in Relative binding affinity: 100% for the first, 350% for the second.

Going from `C#C[C@@H](O)C12CCCC1C1CCC3=CC(=O)CC[C@@H]3C1CC2` (stereo partly drawn) to `C#C[C@@H](O)C12CCCC1C1CCC3=CC(=O)CC[C@@H]3C1CC2.C#C[C@H](O)C12CCCC1C1CCC3=CC(=O)CC[C@@H]3C1CC2` (stereo partly drawn), the Relative binding affinity rises from 0.6% to 3.1%.
